Reference: the CheMixHub viscosity set

Experiment: xn = mol fraction of the nth substance listed

Oc1ccccc1 + CCCCNCCCC
298.16 K, 101 kPa
Conditions	viscosity [mPa·s]
x1 = 0.5012	5.109
x1 = 0.6086	13.4
x1 = 0.6558	20.06
x1 = 0.6934	34.09
x1 = 0.7223	46.47
x1 = 0.753	64.82
x1 = 0.7713	74.82
x1 = 0.7925	84.1
x1 = 0.8147	89.23
x1 = 0.8446	82.1
x1 = 0.875	62.86
x1 = 0.8948	49.73

COC(=O)OC + CCCCO
Conditions	viscosity [mPa·s]
293.15 K, 101 kPa, x1 = 0.05212	2.427
293.15 K, 101 kPa, x1 = 0.09994	2.071
293.15 K, 101 kPa, x1 = 0.191	1.611
293.15 K, 101 kPa, x1 = 0.2904	1.291
293.15 K, 101 kPa, x1 = 0.4109	1.029
293.15 K, 101 kPa, x1 = 0.4555	0.957
293.15 K, 101 kPa, x1 = 0.6133	0.775
293.15 K, 101 kPa, x1 = 0.7008	0.71
293.15 K, 101 kPa, x1 = 0.8063	0.656
293.15 K, 101 kPa, x1 = 0.907	0.63
293.15 K, 101 kPa, x1 = 0.9512	0.636
293.15 K, 101.3 kPa, x1 = 0.0518	2.461
293.15 K, 101.3 kPa, x1 = 0.0975	2.119
293.15 K, 101.3 kPa, x1 = 0.1961	1.586
293.15 K, 101.3 kPa, x1 = 0.3064	1.218
293.15 K, 101.3 kPa, x1 = 0.4108	1.023
293.15 K, 101.3 kPa, x1 = 0.4769	0.929
293.15 K, 101.3 kPa, x1 = 0.6101	0.794
293.15 K, 101.3 kPa, x1 = 0.7043	0.719
293.15 K, 101.3 kPa, x1 = 0.8043	0.644
293.15 K, 101.3 kPa, x1 = 0.9052	0.607
293.15 K, 101.3 kPa, x1 = 0.9508	0.605
298.15 K, 101.3 kPa, x1 = 0.0527	2.192
298.15 K, 101.3 kPa, x1 = 0.1009	1.877
298.15 K, 101.3 kPa, x1 = 0.2002	1.411
298.15 K, 101.3 kPa, x1 = 0.2986	1.127
298.15 K, 101.3 kPa, x1 = 0.3974	0.952
298.15 K, 101.3 kPa, x1 = 0.5039	0.831
298.15 K, 101.3 kPa, x1 = 0.6008	0.748
298.15 K, 101.3 kPa, x1 = 0.7028	0.673
298.15 K, 101.3 kPa, x1 = 0.8011	0.611
298.15 K, 101.3 kPa, x1 = 0.8965	0.572
298.15 K, 101.3 kPa, x1 = 0.9503	0.569
303.15 K, 101 kPa, x1 = 0.0494	1.938
303.15 K, 101 kPa, x1 = 0.1058	1.648
303.15 K, 101 kPa, x1 = 0.2154	1.256
303.15 K, 101 kPa, x1 = 0.2915	1.077
303.15 K, 101 kPa, x1 = 0.4086	0.882
303.15 K, 101 kPa, x1 = 0.5007	0.769
303.15 K, 101 kPa, x1 = 0.5847	0.697
303.15 K, 101 kPa, x1 = 0.7003	0.622
303.15 K, 101 kPa, x1 = 0.798	0.581
303.15 K, 101 kPa, x1 = 0.9065	0.553
303.15 K, 101 kPa, x1 = 0.9587	0.551
303.15 K, 101.3 kPa, x1 = 0.0249	2.078
303.15 K, 101.3 kPa, x1 = 0.096	1.666
303.15 K, 101.3 kPa, x1 = 0.1911	1.304
303.15 K, 101.3 kPa, x1 = 0.2998	1.046
303.15 K, 101.3 kPa, x1 = 0.3877	0.903
303.15 K, 101.3 kPa, x1 = 0.4799	0.787
303.15 K, 101.3 kPa, x1 = 0.5865	0.681
303.15 K, 101.3 kPa, x1 = 0.6907	0.608
303.15 K, 101.3 kPa, x1 = 0.7931	0.564
303.15 K, 101.3 kPa, x1 = 0.8925	0.547
303.15 K, 101.3 kPa, x1 = 0.9464	0.542
313.15 K, 101 kPa, x1 = 0.04725	1.542
313.15 K, 101 kPa, x1 = 0.1216	1.252
313.15 K, 101 kPa, x1 = 0.2016	1.027
313.15 K, 101 kPa, x1 = 0.2876	0.857
313.15 K, 101 kPa, x1 = 0.3956	0.712
313.15 K, 101 kPa, x1 = 0.414	0.693
313.15 K, 101 kPa, x1 = 0.6043	0.552
313.15 K, 101 kPa, x1 = 0.6975	0.511
313.15 K, 101 kPa, x1 = 0.8019	0.484
313.15 K, 101 kPa, x1 = 0.9062	0.477
313.15 K, 101 kPa, x1 = 0.9368	0.479
313.15 K, 101.3 kPa, x1 = 0.0499	1.536
313.15 K, 101.3 kPa, x1 = 0.0998	1.351
313.15 K, 101.3 kPa, x1 = 0.2234	1.018
313.15 K, 101.3 kPa, x1 = 0.3	0.88
313.15 K, 101.3 kPa, x1 = 0.3991	0.752
313.15 K, 101.3 kPa, x1 = 0.5054	0.662
313.15 K, 101.3 kPa, x1 = 0.603	0.598
313.15 K, 101.3 kPa, x1 = 0.6904	0.557
313.15 K, 101.3 kPa, x1 = 0.8009	0.52
313.15 K, 101.3 kPa, x1 = 0.9014	0.497
313.15 K, 101.3 kPa, x1 = 0.9471	0.494

COCCOCCOC + CCCCO
viscosity [mPa·s], 101 kPa
Conditions	x1 = 0.1051	x1 = 0.2018	x1 = 0.3019	x1 = 0.4029	x1 = 0.5049	x1 = 0.6017	x1 = 0.7049	x1 = 0.7983	x1 = 0.9023
298.15 K	1.866	1.542	1.304	1.178	1.103	1.048	1.019	0.998	0.989
308.15 K	1.48	1.252	1.074	0.983	0.924	0.883	0.863	0.849	0.842
318.15 K	1.186	1.028	0.906	0.827	0.782	0.762	0.74	0.73	0.723

Cc1ccc(S(=O)O[C@@H]2C[C@H](C)CC[C@H]2C(C)C)cc1 (some centres not stated) + CCCCO
298 K, 101.3 kPa
Conditions	viscosity [mPa·s]
x1 = 0.00285	2.53
x1 = 0.00515	2.538
x1 = 0.007672	2.595
x1 = 0.01005	2.623
x1 = 0.01302	2.653
x1 = 0.01567	2.683
